The target in one assay is PARG (Homo sapiens, UniProt Q86W56). The assay can be described thus: Biochemical assay (PARG, TFMU-ADPr substrate). Particulars: PARG, TFMU-ADPr substrate.
The next assay concerns HCC1806. The assay can be described thus: Cell viability assay (CellTiter-Glo). Format: cell-based, Human. Conditions: Homo sapiens, HCC1806, 168 h, HCC1806, 7 days, CellTiter-Glo; read-out: IC50 (nM) in cell viability assay.

PARG, sequence (Q86W56 whole entry): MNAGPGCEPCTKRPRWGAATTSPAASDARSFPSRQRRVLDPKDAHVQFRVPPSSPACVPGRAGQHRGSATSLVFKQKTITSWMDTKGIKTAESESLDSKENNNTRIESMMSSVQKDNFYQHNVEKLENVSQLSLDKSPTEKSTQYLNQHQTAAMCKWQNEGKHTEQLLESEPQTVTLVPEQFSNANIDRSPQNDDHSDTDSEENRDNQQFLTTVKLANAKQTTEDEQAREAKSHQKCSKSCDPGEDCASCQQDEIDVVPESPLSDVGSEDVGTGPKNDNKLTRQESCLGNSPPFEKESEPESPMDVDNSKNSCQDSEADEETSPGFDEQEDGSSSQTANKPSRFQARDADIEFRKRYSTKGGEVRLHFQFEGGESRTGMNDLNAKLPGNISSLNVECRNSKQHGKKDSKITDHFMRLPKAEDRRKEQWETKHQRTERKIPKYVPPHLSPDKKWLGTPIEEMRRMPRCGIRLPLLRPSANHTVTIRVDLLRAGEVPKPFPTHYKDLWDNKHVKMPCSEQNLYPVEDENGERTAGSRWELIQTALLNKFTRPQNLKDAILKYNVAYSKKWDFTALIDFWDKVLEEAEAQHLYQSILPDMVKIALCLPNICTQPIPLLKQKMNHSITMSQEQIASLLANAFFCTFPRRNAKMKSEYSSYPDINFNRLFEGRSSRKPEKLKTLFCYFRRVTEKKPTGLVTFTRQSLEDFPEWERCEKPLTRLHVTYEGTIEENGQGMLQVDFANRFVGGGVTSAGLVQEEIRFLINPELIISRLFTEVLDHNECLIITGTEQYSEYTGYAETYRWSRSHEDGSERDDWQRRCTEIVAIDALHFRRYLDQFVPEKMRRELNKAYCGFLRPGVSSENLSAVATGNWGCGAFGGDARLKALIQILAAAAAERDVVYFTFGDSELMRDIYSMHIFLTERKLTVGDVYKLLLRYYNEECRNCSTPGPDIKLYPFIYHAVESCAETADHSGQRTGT

As for `CC1(NS(=O)(=O)c2cc(N3CCN[C@@H](CO)C3)c3cnc(-c4nnc(C(F)F)s4)n3c2)COC1` [Example 178, (R)-3-(5-(difluoromethyl)-1,3,4-thiadiazol-2-yl)-8-(3-(hydroxymethyl)piperazin-1-yl)-N-(3-methyloxetan-3-yl)imidazo[1,5-a]pyridine-6-sulfonamide], the IC50 stood at 1.18 nM at PARG and 945 nM in the assay on HCC1806.
With `C[C@@H]1CN(c2cc(S(=O)(=O)NC3(C)COC3)cn3c(-c4nnc(C(F)F)s4)ncc23)C[C@@H](C)N1` [Example 180, 3-(5-(difluoromethyl)-1,3,4-thiadiazol-2-yl)-8-((3R,5R)-3,5-dimethylpiperazin-1-yl)-N-(3-methyloxetan-3-yl)imidazo[1,5-a]pyridine-6-sulfonamide], the IC50 against PARG turned out to be 5.62 nM; with HCC1806, 517 nM.
The matching figures for `C[C@H]1CN(c2cc(S(=O)(=O)NC3(C)COC3)cn3c(-c4nnc(C(F)F)s4)ncc23)CCN1` [Example 181, (S)-3-(5-(difluoromethyl)-1,3,4-thiadiazol-2-yl)-N-(3-methyloxetan-3-yl)-8-(3-methylpiperazin-1-yl)imidazo[1,5-a]pyridine-6-sulfonamide]: 1.78 nM and 151 nM.
On to `C[C@H]1CN(c2cc(S(=O)(=O)NC3(C)COC3)cn3c(-c4nnc(C(F)F)s4)cnc23)C[C@H](C)N1` [Example 182, 3-(5-(difluoromethyl)-1,3,4-thiadiazol-2-yl)-8-((3S,5S)-3,5-dimethylpiperazin-1-yl)-N-(3-methyloxetan-3-yl)imidazo[1,2-a]pyridine-6-sulfonamide], for which the IC50 is 0.53 nM on PARG and 128 nM with HCC1806.
For `[2H]C([2H])([2H])OC1(C(=O)N2CCN(c3cc(S(=O)(=O)NC4(C)COC4)cn4c(-c5nnc(C(F)(F)F)s5)ncc34)CC2)CC1` [Example 183, 8-(4-(1-(methoxy-d3)cyclopropane-1-carbonyl)piperazin-1-yl)-N-(3-methyloxetan-3-yl)-3-(5-(trifluoromethyl)-1,3,4-thiadiazol-2-yl)imidazo[1,5-a]pyridine-6-sulfonamide] the same measures were 0.91 nM and 26.8 nM.
The matching figures for `C[C@H]1CN(c2cc(S(=O)(=O)NC3(C)COC3)cn3c(-c4nnc(C(F)(F)F)s4)ncc23)C[C@H](C)N1` [Example 184, 8-((3S,5S)-3,5-dimethylpiperazin-1-yl)-N-(3-methyloxetan-3-yl)-3-(5-(trifluoromethyl)-1,3,4-thiadiazol-2-yl)imidazo[1,5-a]pyridine-6-sulfonamide]: 1.15 nM and 18 nM.
As for `CN(C)CCN(C)C(=O)N1CCN(c2cc(S(=O)(=O)NC3(C)COC3)cn3c(-c4nnc(C(F)(F)F)s4)ncc23)CC1` [Example 185, N-(2-(dimethylamino)ethyl)-N-methyl-4-(6-(N-(3-methyloxetan-3-yl)sulfamoyl)-3-(5-(trifluoromethyl)-1,3,4-thiadiazol-2-yl)imidazo[1,5-a]pyridin-8-yl)piperazine-1-carboxamide], the values for the IC50 at PARG and with HCC1806 were 4.58 nM and 797 nM, respectively.
For `CC1(NS(=O)(=O)c2cc(N3CCN4C(=O)CCC4C3)c3cnc(-c4nnc(C(F)(F)F)s4)n3c2)COC1` (centres unmarked) [Example 186, N-(3-methyloxetan-3-yl)-8-(6-oxohexahydropyrrolo[1,2-a]pyrazin-2(1H)-yl)-3-(5-(trifluoromethyl)-1,3,4-thiadiazol-2-yl)imidazo[1,5-a]pyridine-6-sulfonamide], the values for the IC50 at PARG and in the assay on HCC1806 were 5.62 nM and 485 nM, respectively.
Turning to `CN(C)CCN(C)C(=O)N1CCN(c2cc(S(=O)(=O)NC3(C)COC3)cn3c(-c4nnc(C(F)F)s4)ncc23)CC1` [Example 187, 4-(3-(5-(difluoromethyl)-1,3,4-thiadiazol-2-yl)-6-(N-(3-methyloxetan-3-yl)sulfamoyl)imidazo[1,5-a]pyridin-8-yl)-N-(2-(dimethylamino)ethyl)-N-methylpiperazine-1-carboxamide], the IC50 is 3.37 nM at PARG and 874 nM in the assay with HCC1806.
With `CN(C)CCN(C)C(=O)N1CCN(c2cc(S(=O)(=O)NC3(C)COC3)cn3c(-c4nnc(C(F)F)s4)nc(Cl)c23)CC1` [Example 188, 4-(1-chloro-3-(5-(difluoromethyl)-1,3,4-thiadiazol-2-yl)-6-(N-(3-methyloxetan-3-yl)sulfamoyl)imidazo[1,5-a]pyridin-8-yl)-N-(2-(dimethylamino)ethyl)-N-methylpiperazine-1-carboxamide], the IC50 against PARG is 0.71 nM; in the assay on HCC1806 it was 85 nM.
The matching figures for `C[C@H]1CN(c2cc(S(=O)(=O)NC3(C)COC3)cn3c(-c4nnc(C(F)(F)F)s4)cnc23)C[C@H](C)N1` [Example 189, 8-((3S,5S)-3,5-dimethylpiperazin-1-yl)-N-(3-methyloxetan-3-yl)-3-(5-(trifluoromethyl)-1,3,4-thiadiazol-2-yl)imidazo[1,2-a]pyridine-6-sulfonamide]: 3.55 nM and 112 nM.
For `CC1(NS(=O)(=O)c2cc(N3CCN[C@H](CF)C3)c3cnc(-c4nnc(C(F)F)s4)n3c2)COC1` [Example 191, (S)-3-(5-(difluoromethyl)-1,3,4-thiadiazol-2-yl)-8-(3-(fluoromethyl)piperazin-1-yl)-N-(3-methyloxetan-3-yl)imidazo[1,5-a]pyridine-6-sulfonamide], the IC50 on PARG was found to be 32 nM; in the assay on HCC1806, 723 nM.
In the case of `COC1(C(=O)N2CCN(c3cc(S(=O)(=O)NC4(C#N)CC4)cn4c(-c5nnc(C(F)F)s5)ncc34)CC2)CC1` [Example 192, N-(1-cyanocyclopropyl)-3-(5-(difluoromethyl)-1,3,4-thiadiazol-2-yl)-8-(4-(1-methoxycyclopropane-1-carbonyl)piperazin-1-yl)imidazo[1,5-a]pyridine-6-sulfonamide], the IC50 was 0.83 nM on PARG and 30 nM with HCC1806.
For the compound `COC1(C(=O)N2CCN(c3cc(S(=O)(=O)NC4CC4)cn4c(-c5nnc(C(F)(F)F)s5)ncc34)CC2)CC1` [Example 194, N-cyclopropyl-8-(4-(1-methoxycyclopropane-1-carbonyl)piperazin-1-yl)-3-(5-(trifluoromethyl)-1,3,4-thiadiazol-2-yl)imidazo[1,5-a]pyridine-6-sulfonamide], the IC50 on PARG came out at 3.21 nM; in the assay on HCC1806, 84.8 nM.
The matching figures for `COC1(C(=O)N2CCN(c3c(F)c(S(=O)(=O)NC4CC4)cn4c(-c5nnc(C(F)(F)F)s5)ncc34)CC2)CC1` [Example 195, N-cyclopropyl-7-fluoro-8-(4-(1-methoxycyclopropane-1-carbonyl)piperazin-1-yl)-3-(5-(trifluoromethyl)-1,3,4-thiadiazol-2-yl)imidazo[1,5-a]pyridine-6-sulfonamide]: 5.62 nM and 666 nM.
On to `COC1(C(=O)N2CCN(c3cc(S(=O)(=O)NC4(C)CC4)cn4c(-c5nnc(C(F)F)s5)ncc34)CC2)CC1` [Example 196, 3-(5-(difluoromethyl)-1,3,4-thiadiazol-2-yl)-8-(4-(1-methoxycyclopropane-1-carbonyl)piperazin-1-yl)-N-(1-methylcyclopropyl)imidazo[1,5-a]pyridine-6-sulfonamide], for which the IC50 on PARG is under 0.1 nM; in the assay on HCC1806 it was 6.34 nM.
As to `COC1(C(=O)N2CCN(c3cc(S(=O)(=O)NC4(C)CC4)cn4c(-c5nnc(C(F)F)s5)ncc34)C[C@H]2C)CC1` [Example 197, (R)-3-(5-(difluoromethyl)-1,3,4-thiadiazol-2-yl)-8-(4-(1-methoxycyclopropane-1-carbonyl)-3-methylpiperazin-1-yl)-N-(1-methylcyclopropyl)imidazo[1,5-a]pyridine-6-sulfonamide], the IC50 at PARG was 0.19 nM; in the assay with HCC1806 it was 6.58 nM.
`COC1(C(=O)N2CCN(c3c(F)c(S(=O)(=O)NC4(C)CC4)cn4c(-c5nnc(C(F)F)s5)ncc34)CC2)CC1` [Example 198, 3-(5-(difluoromethyl)-1,3,4-thiadiazol-2-yl)-7-fluoro-8-(4-(1-methoxycyclopropane-1-carbonyl)piperazin-1-yl)-N-(1-methylcyclopropyl)imidazo[1,5-a]pyridine-6-sulfonamide]: the results for the IC50 at PARG and in the assay with HCC1806 were 0.66 nM and 27.8 nM, respectively.
As for `COC1(C(=O)N2CCN(c3cc(S(=O)(=O)NC4(C)CC4)cn4c(-c5nnc(C(F)(F)F)s5)nc(C#N)c34)CC2)CC1` [Example 199, 1-cyano-8-(4-(1-methoxycyclopropane-1-carbonyl)piperazin-1-yl)-N-(1-methylcyclopropyl)-3-(5-(trifluoromethyl)-1,3,4-thiadiazol-2-yl)imidazo[1,5-a]pyridine-6-sulfonamide], the values for the IC50 at PARG and in the assay with HCC1806 were 0.34 nM and 11.5 nM, respectively.
For `COC1(C(=O)N2CCN(c3cc(S(=O)(=O)NC4(C)CC4)cn4c(-c5nnc(C(F)F)s5)ncc34)C[C@H]2CF)CC1` [Example 200, (S)-3-(5-(difluoromethyl)-1,3,4-thiadiazol-2-yl)-8-(3-(fluoromethyl)-4-(1-methoxycyclopropane-1-carbonyl)piperazin-1-yl)-N-(1-methylcyclopropyl)imidazo[1,5-a]pyridine-6-sulfonamide], the IC50 against PARG turned out to be 0.63 nM; in the assay with HCC1806 it was 54.6 nM.
For `COC1(C(=O)N2CCN(c3cc(S(=O)(=O)NC4(C)CC4)cn4c(-c5nnc(C(F)F)s5)ncc34)C[C@H]2CO)CC1` [Example 201, (S)-3-(5-(difluoromethyl)-1,3,4-thiadiazol-2-yl)-8-(3-(hydroxymethyl)-4-(1-methoxycyclopropane-1-carbonyl)piperazin-1-yl)-N-(1-methylcyclopropyl)imidazo[1,5-a]pyridine-6-sulfonamide], the IC50 against PARG turned out to be 0.14 nM; in the assay with HCC1806 it was 9.06 nM.
Consider `CC(C)OC1(C(=O)N2CCN(c3cc(S(=O)(=O)NC4(C)CC4)cn4c(-c5nnc(C(F)(F)F)s5)ncc34)CC2)CC1` [Example 202, 8-(4-(1-isopropoxycyclopropane-1-carbonyl)piperazin-1-yl)-N-(1-methylcyclopropyl)-3-(5-(trifluoromethyl)-1,3,4-thiadiazol-2-yl)imidazo[1,5-a]pyridine-6-sulfonamide], for which the IC50 came to 1.16 nM against PARG and 133 nM with HCC1806.

(Values after US20260258035A1, “FIVE-MEMBERED AND SIX-MEMBERED NITROGEN-CONTAINING COMPOUND, AND INTERMEDIATE, PREPARATION METHOD AND USE THEREOF” (HANGZHOU SYNRX THERAPEUTICS BIOMEDICAL TECHNOLOGY CO., LTD., priority 2022, published 2026).)
